Laboratory results: PMC7181660, “A novel specific PERK activator reduces toxicity and extends survival in Huntington's disease models” (Scientific Reports, 2020)

Columns and labels:
Assay in all cases: biochemical
Format in all cases: biochemical
panel of 391 kinases [1] = biological target: panel of 391 kinases (Homo sapiens, UniProt Q96KB5); settings: PBK/TOPK, MK-28 1 µM, ATP 1 µM
panel of 391 kinases [2] = biological target: panel of 391 kinases (Homo sapiens, UniProt P15735); settings: PHKg2, MK-28 1 µM, ATP 1 µM
panel of 391 kinases [3] = biological target: panel of 391 kinases (Homo sapiens, UniProt P09769); settings: FGR, MK-28 1 µM, ATP 1 µM
panel of 391 kinases [4] = biological target: panel of 391 kinases (Homo sapiens, UniProt O94806); settings: PKCnu/PRKD3, MK-28 1 µM, ATP 1 µM
panel of 391 kinases [5] = biological target: panel of 391 kinases (Homo sapiens, UniProt P78368); settings: CK1g2, MK-28 1 µM, ATP 1 µM
panel of 391 kinases [6] = biological target: panel of 391 kinases (Homo sapiens, UniProt Q9NQU5); settings: PAK6, MK-28 1 µM, ATP 1 µM
panel of 391 kinases [7] = biological target: panel of 391 kinases (Homo sapiens, UniProt Q8N4C8); settings: MINK/MINK1, MK-28 1 µM, ATP 1 µM
panel of 391 kinases [8] = biological target: panel of 391 kinases (Homo sapiens, UniProt Q13555); settings: CAMK2g, MK-28 1 µM, ATP 1 µM
panel of 391 kinases [9] = biological target: panel of 391 kinases (Homo sapiens, UniProt Q9H0K1); settings: SIK2, MK-28 1 µM, ATP 1 µM
panel of 391 kinases [10] = biological target: panel of 391 kinases (Homo sapiens, UniProt Q16512); settings: PKN1/PRK1, MK-28 1 µM, ATP 1 µM
panel of 391 kinases [11] = biological target: panel of 391 kinases (Homo sapiens, UniProt P43250); settings: GRK6, MK-28 1 µM, ATP 1 µM
panel of 391 kinases [12] = biological target: panel of 391 kinases (Homo sapiens, UniProt Q04759); settings: PKCtheta, MK-28 1 µM, ATP 1 µM
panel of 391 kinases [13] = biological target: panel of 391 kinases (Homo sapiens, UniProt P50613); settings: CDK7/cyclin H, MK-28 1 µM, ATP 1 µM
panel of 391 kinases [14] = biological target: panel of 391 kinases (Homo sapiens, UniProt Q5VT25); settings: MRCKa/CDC42BPA, MK-28 1 µM, ATP 1 µM
panel of 391 kinases [15] = biological target: panel of 391 kinases (Homo sapiens, UniProt Q15418); settings: RSK1, MK-28 1 µM, ATP 1 µM
panel of 391 kinases [16] = biological target: panel of 391 kinases (Homo sapiens, UniProt Q15303); settings: ERBB4/HER4, MK-28 1 µM, ATP 1 µM
panel of 391 kinases [17] = biological target: panel of 391 kinases (Homo sapiens, UniProt P48730); settings: CK1d, MK-28 1 µM, ATP 1 µM
panel of 391 kinases [18] = biological target: panel of 391 kinases (Homo sapiens, UniProt P49841); settings: GSK3b, MK-28 1 µM, ATP 1 µM
panel of 391 kinases [19] = biological target: panel of 391 kinases (Homo sapiens, UniProt Q13627); settings: DYRK1/DYRK1A, MK-28 1 µM, ATP 1 µM
panel of 391 kinases [20] = biological target: panel of 391 kinases (Homo sapiens, UniProt Q15375); settings: EPHA7, MK-28 1 µM, ATP 1 µM
panel of 391 kinases [21] = biological target: panel of 391 kinases (Homo sapiens, UniProt Q9UBS0); settings: p70S6Kb/RPS6KB2, MK-28 1 µM, ATP 1 µM
panel of 391 kinases [22] = biological target: panel of 391 kinases (Homo sapiens, UniProt Q12851); settings: GCK/MAP4K2, MK-28 1 µM, ATP 1 µM
panel of 391 kinases [23] = biological target: panel of 391 kinases (Homo sapiens, UniProt O95835); settings: LATS1, MK-28 1 µM, ATP 1 µM
panel of 391 kinases [24] = biological target: panel of 391 kinases (Homo sapiens, UniProt Q86V86); settings: PIM3, MK-28 1 µM, ATP 1 µM
panel of 391 kinases [25] = biological target: panel of 391 kinases (Homo sapiens, UniProt Q12866); settings: c-MER, MK-28 1 µM, ATP 1 µM
panel of 391 kinases [26] = biological target: panel of 391 kinases (Homo sapiens, UniProt P22694); settings: PKAcb, MK-28 1 µM, ATP 1 µM
[27] = read-out: % Enzyme Activity (relative to DMSO controls)

Question: Which “% Enzyme Activity (relative to DMSO controls)” value (panel of 391 kinases [1]) does the source give for `CN(/N=C\c1ccc(O)c(O)c1)c1nc(-c2ccccc2)cc(-c2ccccc2)n1` [MK-28] here?
Answer: Its value is 93.64%.

Question: What about the remaining activity at 1 µM (panel of 391 kinases [1]; [27]) of the same compound?
Answer: Its remaining activity at 1 µM is 94.2%.

Question: What about the “% Enzyme Activity (relative to DMSO controls)” value (panel of 391 kinases [2]) of the same compound?
Answer: The value was 95.93%.

Question: And the remaining activity at 1 µM (panel of 391 kinases [2]; [27])?
Answer: Its remaining activity at 1 µM is 96.2%.

Question: And the “% Enzyme Activity (relative to DMSO controls)” value (panel of 391 kinases [3])?
Answer: The value was 99.92%.

Question: And the remaining activity at 1 µM (panel of 391 kinases [3]; [27])?
Answer: The remaining activity at 1 µM was 100%.

Question: And the “% Enzyme Activity (relative to DMSO controls)” value (panel of 391 kinases [4])?
Answer: Its value is 97.83%.

Question: What about the remaining activity at 1 µM (panel of 391 kinases [4]; [27]) of the same compound?
Answer: The remaining activity at 1 µM was 98.1%.

Question: What about the “% Enzyme Activity (relative to DMSO controls)” value (panel of 391 kinases [5]) of the same compound?
Answer: Its value is 83.33%.

Question: What about the remaining activity at 1 µM (panel of 391 kinases [5]; [27]) of the same compound?
Answer: The remaining activity at 1 µM was 87%.

Question: And the “% Enzyme Activity (relative to DMSO controls)” value (panel of 391 kinases [6])?
Answer: The value was 97.64%.

Question: And the remaining activity at 1 µM (panel of 391 kinases [6]; [27])?
Answer: The remaining activity at 1 µM was 98%.

Question: What about the “% Enzyme Activity (relative to DMSO controls)” value (panel of 391 kinases [7]) of the same compound?
Answer: Its value is 95.98%.

Question: What about the remaining activity at 1 µM (panel of 391 kinases [7]; [27]) of the same compound?
Answer: Its remaining activity at 1 µM is 98.7%.

Question: And the “% Enzyme Activity (relative to DMSO controls)” value (panel of 391 kinases [8])?
Answer: The value was 86.57%.

Question: And the remaining activity at 1 µM (panel of 391 kinases [8]; [27])?
Answer: Its remaining activity at 1 µM is 87.8%.

Question: And the “% Enzyme Activity (relative to DMSO controls)” value (panel of 391 kinases [9])?
Answer: Its value is 93.76%.

Question: What about the remaining activity at 1 µM (panel of 391 kinases [9]; [27]) of the same compound?
Answer: Its remaining activity at 1 µM is 97.5%.

Question: And the “% Enzyme Activity (relative to DMSO controls)” value (panel of 391 kinases [10])?
Answer: The value was 112.74%.

Question: And the remaining activity at 1 µM (panel of 391 kinases [10]; [27])?
Answer: Its remaining activity at 1 µM is 113%.

Question: And the “% Enzyme Activity (relative to DMSO controls)” value (panel of 391 kinases [11])?
Answer: Its value is 102.17%.

Question: What about the remaining activity at 1 µM (panel of 391 kinases [11]; [27]) of the same compound?
Answer: The remaining activity at 1 µM was 104%.

Question: And the “% Enzyme Activity (relative to DMSO controls)” value (panel of 391 kinases [12])?
Answer: Its value is 123.95%.

Question: What about the remaining activity at 1 µM (panel of 391 kinases [12]; [27]) of the same compound?
Answer: The remaining activity at 1 µM was 128%.

Question: What about the “% Enzyme Activity (relative to DMSO controls)” value (panel of 391 kinases [13]) of the same compound?
Answer: Its value is 106.19%.

Question: And the remaining activity at 1 µM (panel of 391 kinases [13]; [27])?
Answer: The remaining activity at 1 µM was 108%.

Question: What about the “% Enzyme Activity (relative to DMSO controls)” value (panel of 391 kinases [14]) of the same compound?
Answer: Its value is 93.74%.

Question: And the remaining activity at 1 µM (panel of 391 kinases [14]; [27])?
Answer: Its remaining activity at 1 µM is 95.3%.

Question: What about the “% Enzyme Activity (relative to DMSO controls)” value (panel of 391 kinases [15]) of the same compound?
Answer: Its value is 96.73%.

Question: And the remaining activity at 1 µM (panel of 391 kinases [15]; [27])?
Answer: Its remaining activity at 1 µM is 96.8%.

Question: What about the “% Enzyme Activity (relative to DMSO controls)” value (panel of 391 kinases [16]) of the same compound?
Answer: Its value is 97.84%.

Question: What about the remaining activity at 1 µM (panel of 391 kinases [16]; [27]) of the same compound?
Answer: Its remaining activity at 1 µM is 99.3%.

Question: And the “% Enzyme Activity (relative to DMSO controls)” value (panel of 391 kinases [17])?
Answer: The value was 95.42%.

Question: What about the remaining activity at 1 µM (panel of 391 kinases [17]; [27]) of the same compound?
Answer: Its remaining activity at 1 µM is 99.5%.

Question: What about the “% Enzyme Activity (relative to DMSO controls)” value (panel of 391 kinases [18]) of the same compound?
Answer: Its value is 63.98%.

Question: What about the remaining activity at 1 µM (panel of 391 kinases [18]; [27]) of the same compound?
Answer: Its remaining activity at 1 µM is 70.3%.

Question: What about the “% Enzyme Activity (relative to DMSO controls)” value (panel of 391 kinases [19]) of the same compound?
Answer: Its value is 102.59%.

Question: What about the remaining activity at 1 µM (panel of 391 kinases [19]; [27]) of the same compound?
Answer: Its remaining activity at 1 µM is 103%.

Question: And the “% Enzyme Activity (relative to DMSO controls)” value (panel of 391 kinases [20])?
Answer: The value was 96.58%.

Question: What about the remaining activity at 1 µM (panel of 391 kinases [20]; [27]) of the same compound?
Answer: The remaining activity at 1 µM was 98.6%.

Question: What about the “% Enzyme Activity (relative to DMSO controls)” value (panel of 391 kinases [21]) of the same compound?
Answer: The value was 91.85%.

Question: And the remaining activity at 1 µM (panel of 391 kinases [21]; [27])?
Answer: Its remaining activity at 1 µM is 93.6%.

Question: And the “% Enzyme Activity (relative to DMSO controls)” value (panel of 391 kinases [22])?
Answer: The value was 97.18%.

Question: And the remaining activity at 1 µM (panel of 391 kinases [22]; [27])?
Answer: Its remaining activity at 1 µM is 97.2%.

Question: And the “% Enzyme Activity (relative to DMSO controls)” value (panel of 391 kinases [23])?
Answer: The value was 99.22%.

Question: What about the remaining activity at 1 µM (panel of 391 kinases [23]; [27]) of the same compound?
Answer: The remaining activity at 1 µM was 101%.

Question: What about the “% Enzyme Activity (relative to DMSO controls)” value (panel of 391 kinases [24]) of the same compound?
Answer: Its value is 87.24%.

Question: And the remaining activity at 1 µM (panel of 391 kinases [24]; [27])?
Answer: Its remaining activity at 1 µM is 89.2%.

Question: And the “% Enzyme Activity (relative to DMSO controls)” value (panel of 391 kinases [25])?
Answer: The value was 97.57%.

Question: And the remaining activity at 1 µM (panel of 391 kinases [25]; [27])?
Answer: The remaining activity at 1 µM was 98.6%.

Question: And the “% Enzyme Activity (relative to DMSO controls)” value (panel of 391 kinases [26])?
Answer: Its value is 95.23%.

Question: And the remaining activity at 1 µM (panel of 391 kinases [26]; [27])?
Answer: The remaining activity at 1 µM was 99.2%.
